Assay results published in ChEMBL document CHEMBL1201862, “PubChem BioAssay data set” (2004).
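Following 48 hours of exposure in 96-well plates, responses at five concentrations were used to interpolate endpoints linearly. GI50 is the concentration that inhibits growth by half.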 Activity calls are given as the source filed them. Rule as the data show it: active = GI50 up to about 1.1 µM and inactive = higher.

Key:
Assay in all cases: DTP human tumour cell line panel, 48 h
HT-29 = test system: HT-29
HCT-15 = test system: HCT-15
NCI-H226 = test system: NCI-H226
SK-MEL-28 = test system: SK-MEL-28
SK-OV-3 = test system: SK-OV-3
SK-MEL-5 = test system: SK-MEL-5
OVCAR-5 = test system: OVCAR-5
SF-268 = test system: SF-268
SK-MEL-2 = test system: SK-MEL-2
TK-10 = test system: TK-10
OVCAR-8 = test system: OVCAR-8
A549 = test system: A549
K562 = test system: K562
SF-539 = test system: SF-539
A498 = test system: A498
LOX IMVI = test system: LOX IMVI
HCC 2998 = test system: HCC 2998
HOP-62 = test system: HOP-62
Malme-3M = test system: Malme-3M
SNB-78 = test system: SNB-78

In the case of `COc1ccc(/C=C2\CCC(CN(C)C)C2=O)cc1OC` (stereo not given), the GI50 (HT-29) was 5.61 µM (inactive), the GI50 (HCT-15) was 2.9 µM and the GI50 (NCI-H226) was 13.2 µM (inactive). For the same compound, the GI50 (SK-MEL-28) was 5.48 µM (inactive), the GI50 (SK-OV-3) was 19.1 µM (inactive) and the GI50 (SK-MEL-5) was 10.1 µM (inactive). The GI50 (OVCAR-5) was 14.8 µM (inactive), the GI50 (SF-268) was 10.7 µM (inactive) and the GI50 (SK-MEL-2) was 11.5 µM (inactive). For the same compound, the GI50 (TK-10) was 7.14 µM (inactive), the GI50 (OVCAR-8) was 2.9 µM (inactive) and the GI50 (A549) was 17.2 µM (inactive). The GI50 (K562) was 1.17 µM (inactive), the GI50 (SF-539) was 10.5 µM (inactive) and the GI50 (A498) was 14.6 µM (inactive). The GI50 (LOX IMVI) was 1.91 µM (inactive), the GI50 (HCC 2998) was 5.83 µM (inactive) and the GI50 (HOP-62) was 18.8 µM (inactive). The GI50 (Malme-3M) was 3.95 µM (inactive) and the GI50 (SNB-78) was 17.5 µM (inactive).

`Cc1ccc(C(=O)O/N=C2/CCC/C2=C\c2ccccc2)cc1` was tested, and the GI50 (HT-29) was > 100 µM (inactive), the GI50 (HCT-15) was greater than 100 µM and the GI50 (NCI-H226) was > 100 µM (inactive). For the same compound, the GI50 (SK-MEL-28) was > 100 µM (inactive), the GI50 (SK-OV-3) was > 100 µM (inactive) and the GI50 (SK-MEL-5) was > 100 µM (inactive). The GI50 (OVCAR-5) was > 100 µM (inactive), the GI50 (SF-268) was 29.1 µM (inactive) and the GI50 (SK-MEL-2) was > 100 µM (inactive). The GI50 (TK-10) was > 100 µM (inactive), the GI50 (OVCAR-8) was > 100 µM (inactive) and the GI50 (A549) was > 100 µM (inactive). The GI50 (K562) was > 100 µM (inactive), the GI50 (SF-539) was > 100 µM (inactive) and the GI50 (A498) was > 100 µM (inactive). The GI50 (LOX IMVI) was > 100 µM (inactive), the GI50 (HCC 2998) was > 100 µM (inactive) and the GI50 (HOP-62) was > 100 µM (inactive). For the same compound, the GI50 (Malme-3M) was > 100 µM (inactive) and the GI50 (SNB-78) was > 100 µM (inactive).
